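Growth conditions: 96-well plates. Treatment: test compound, 48 hours, 5 concentrations. Analysis: linear interpolation between bracketing concentrations; unreached endpoints set to highest concentration. The concentration for full growth arrest is given as TGI.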
What was measured:
Assay in all cases: inhibition of tumour cell growth, NCI panel, 48 h
786-0 renal = test system: 786-0 renal
A498 renal = test system: A498 renal
A549 NSCLC = test system: A549 NSCLC
ACHN renal = test system: ACHN renal
CAKI-1 renal = test system: CAKI-1 renal
CCRF-CEM leukemia = test system: CCRF-CEM leukemia
COLO 205 colon = test system: COLO 205 colon
DLD-1 colon = test system: DLD-1 colon
DMS 114 small cell lung = test system: DMS 114 small cell lung
DMS 273 small cell lung = test system: DMS 273 small cell lung
EKVX NSCLC = test system: EKVX NSCLC
HCC-2998 colon = test system: HCC-2998 colon
HCT-116 colon = test system: HCT-116 colon
HCT-15 colon = test system: HCT-15 colon
HOP-18 NSCLC = test system: HOP-18 NSCLC
HOP-62 NSCLC = test system: HOP-62 NSCLC
HOP-92 NSCLC = test system: HOP-92 NSCLC
HT29 colon = test system: HT29 colon
IGROV1 ovarian = test system: IGROV1 ovarian
K-562 leukemia = test system: K-562 leukemia
KM20L2 colon = test system: KM20L2 colon
LOX IMVI melanoma = test system: LOX IMVI melanoma
LXFL 529 NSCLC = test system: LXFL 529 NSCLC
M14 melanoma = test system: M14 melanoma
M19-MEL melanoma = test system: M19-MEL melanoma
MALME-3M melanoma = test system: MALME-3M melanoma
MOLT-4 leukemia = test system: MOLT-4 leukemia
NCI-H23 lung = test system: NCI-H23 lung
NCI-H460 lung = test system: NCI-H460 lung
NCI-H522 lung = test system: NCI-H522 lung
OVCAR-3 ovarian = test system: OVCAR-3 ovarian
OVCAR-4 ovarian = test system: OVCAR-4 ovarian
OVCAR-5 ovarian = test system: OVCAR-5 ovarian
OVCAR-8 ovarian = test system: OVCAR-8 ovarian
RPMI-8226 leukemia = test system: RPMI-8226 leukemia
RXF 393 renal = test system: RXF 393 renal
SF-268 CNS = test system: SF-268 CNS
SF-295 CNS = test system: SF-295 CNS
SF-539 CNS = test system: SF-539 CNS
SK-MEL-2 melanoma = test system: SK-MEL-2 melanoma
SK-MEL-28 melanoma = test system: SK-MEL-28 melanoma
SK-MEL-5 melanoma = test system: SK-MEL-5 melanoma
SK-OV-3 ovarian = test system: SK-OV-3 ovarian
SN12C renal = test system: SN12C renal
SNB-19 CNS = test system: SNB-19 CNS
SNB-75 CNS = test system: SNB-75 CNS
SNB-78 CNS = test system: SNB-78 CNS
SW-620 colon = test system: SW-620 colon
TK-10 renal = test system: TK-10 renal
U251 CNS = test system: U251 CNS
UACC-257 melanoma = test system: UACC-257 melanoma
UACC-62 melanoma = test system: UACC-62 melanoma
UO-31 renal = test system: UO-31 renal
XF 498 CNS = test system: XF 498 CNS
HL-60(TB) leukemia = test system: HL-60(TB) leukemia
KM12 colon = test system: KM12 colon
NCI-H226 lung = test system: NCI-H226 lung
SR leukemia = test system: SR leukemia

Work on `O=C(N/C(=C\c1ccc(/C=C(\NC(=O)c2ccccc2)c2nc3ccccc3[nH]2)cc1)c1nc2ccccc2[nH]1)c1ccccc1` yielded a TGI (786-0 renal) greater than 100 µM, a TGI (A498 renal) greater than 100 µM and a TGI (A549 NSCLC) greater than 100 µM. For the same compound, the TGI (ACHN renal) was greater than 100 µM, the TGI (CAKI-1 renal) was greater than 100 µM and the TGI (CCRF-CEM leukemia) was greater than 100 µM. The TGI (COLO 205 colon) was greater than 100 µM, the TGI (DLD-1 colon) was greater than 100 µM and the TGI (DMS 114 small cell lung) was greater than 100 µM. It also gave a TGI (DMS 273 small cell lung) greater than 100 µM, a TGI (EKVX NSCLC) greater than 100 µM and a TGI (HCC-2998 colon) greater than 100 µM. It also gave a TGI (HCT-116 colon) greater than 100 µM, a TGI (HCT-15 colon) greater than 100 µM and a TGI (HOP-18 NSCLC) greater than 100 µM. It also gave a TGI (HOP-62 NSCLC) greater than 100 µM, a TGI (HOP-92 NSCLC) greater than 100 µM and a TGI (HT29 colon) greater than 100 µM. It also gave a TGI (IGROV1 ovarian) greater than 100 µM, a TGI (K-562 leukemia) greater than 100 µM and a TGI (KM20L2 colon) greater than 100 µM. It also gave a TGI (LOX IMVI melanoma) greater than 100 µM, a TGI (LXFL 529 NSCLC) greater than 100 µM and a TGI (M14 melanoma) greater than 100 µM. For the same compound, the TGI (M19-MEL melanoma) was greater than 100 µM, the TGI (MALME-3M melanoma) was greater than 100 µM and the TGI (MOLT-4 leukemia) was greater than 100 µM. The TGI (NCI-H23 lung) was greater than 100 µM, the TGI (NCI-H460 lung) was greater than 100 µM and the TGI (NCI-H522 lung) was greater than 100 µM. The TGI (OVCAR-3 ovarian) was greater than 100 µM, the TGI (OVCAR-4 ovarian) was greater than 100 µM and the TGI (OVCAR-5 ovarian) was greater than 100 µM. For the same compound, the TGI (OVCAR-8 ovarian) was greater than 100 µM, the TGI (RPMI-8226 leukemia) was greater than 100 µM and the TGI (RXF 393 renal) was greater than 100 µM. It also gave a TGI (SF-268 CNS) greater than 100 µM, a TGI (SF-295 CNS) greater than 100 µM and a TGI (SF-539 CNS) greater than 100 µM. For the same compound, the TGI (SK-MEL-2 melanoma) was greater than 100 µM, the TGI (SK-MEL-28 melanoma) was greater than 100 µM and the TGI (SK-MEL-5 melanoma) was greater than 100 µM. It also gave a TGI (SK-OV-3 ovarian) greater than 100 µM, a TGI (SN12C renal) greater than 100 µM and a TGI (SNB-19 CNS) greater than 100 µM. The TGI (SNB-75 CNS) was greater than 100 µM, the TGI (SNB-78 CNS) was greater than 100 µM and the TGI (SW-620 colon) was greater than 100 µM. The TGI (TK-10 renal) was greater than 100 µM, the TGI (U251 CNS) was greater than 100 µM and the TGI (UACC-257 melanoma) was greater than 100 µM. For the same compound, the TGI (UACC-62 melanoma) was greater than 100 µM, the TGI (UO-31 renal) was greater than 100 µM and the TGI (XF 498 CNS) was greater than 100 µM.

`COC(=O)C(CC1=C(O)Nc2ccccc2N1)/C(=N/NC(N)=O)C(=O)Nc1ccccc1C` (stereo not drawn) was tested, and the TGI (786-0 renal) was greater than 100 µM, the TGI (A498 renal) was greater than 100 µM and the TGI (A549 NSCLC) was greater than 100 µM. For the same compound, the TGI (ACHN renal) was greater than 100 µM, the TGI (CAKI-1 renal) was greater than 100 µM and the TGI (CCRF-CEM leukemia) was 48.8 µM. It also gave a TGI (COLO 205 colon) greater than 100 µM, a TGI (DLD-1 colon) greater than 100 µM and a TGI (DMS 114 small cell lung) of 26.5 µM. The TGI (DMS 273 small cell lung) was 36.9 µM, the TGI (EKVX NSCLC) was greater than 100 µM and the TGI (HCC-2998 colon) was greater than 100 µM. For the same compound, the TGI (HCT-116 colon) was 36.8 µM, the TGI (HCT-15 colon) was 34.1 µM and the TGI (HL-60(TB) leukemia) was greater than 100 µM. The TGI (HOP-18 NSCLC) was greater than 100 µM, the TGI (HOP-62 NSCLC) was greater than 100 µM and the TGI (HOP-92 NSCLC) was greater than 100 µM. For the same compound, the TGI (HT29 colon) was greater than 100 µM, the TGI (IGROV1 ovarian) was greater than 100 µM and the TGI (K-562 leukemia) was greater than 100 µM. The TGI (KM12 colon) was greater than 100 µM, the TGI (KM20L2 colon) was greater than 100 µM and the TGI (LOX IMVI melanoma) was 35 µM. For the same compound, the TGI (LXFL 529 NSCLC) was greater than 100 µM, the TGI (M14 melanoma) was greater than 100 µM and the TGI (M19-MEL melanoma) was greater than 100 µM. It also gave a TGI (MALME-3M melanoma) greater than 100 µM, a TGI (MOLT-4 leukemia) greater than 100 µM and a TGI (NCI-H226 lung) greater than 100 µM. It also gave a TGI (NCI-H23 lung) greater than 100 µM, a TGI (NCI-H460 lung) greater than 100 µM and a TGI (NCI-H522 lung) of 33.9 µM. For the same compound, the TGI (OVCAR-3 ovarian) was greater than 100 µM, the TGI (OVCAR-4 ovarian) was greater than 100 µM and the TGI (OVCAR-5 ovarian) was greater than 100 µM. It also gave a TGI (OVCAR-8 ovarian) greater than 100 µM, a TGI (RPMI-8226 leukemia) of 48.4 µM and a TGI (RXF 393 renal) greater than 100 µM. For the same compound, the TGI (SF-268 CNS) was 45.2 µM, the TGI (SF-295 CNS) was greater than 100 µM and the TGI (SF-539 CNS) was greater than 100 µM. It also gave a TGI (SK-MEL-2 melanoma) greater than 100 µM, a TGI (SK-MEL-28 melanoma) greater than 100 µM and a TGI (SK-MEL-5 melanoma) greater than 100 µM. The TGI (SK-OV-3 ovarian) was greater than 100 µM, the TGI (SN12C renal) was greater than 100 µM and the TGI (SNB-19 CNS) was greater than 100 µM. It also gave a TGI (SNB-75 CNS) greater than 100 µM, a TGI (SNB-78 CNS) greater than 100 µM and a TGI (SR leukemia) of 48.5 µM. It also gave a TGI (TK-10 renal) greater than 100 µM, a TGI (U251 CNS) greater than 100 µM and a TGI (UACC-257 melanoma) greater than 100 µM. For the same compound, the TGI (UACC-62 melanoma) was greater than 100 µM and the TGI (UO-31 renal) was greater than 100 µM.

Compound `COc1ccc(CC2(Cc3ccc(OC)cc3)CCOC2=O)cc1` has a TGI (786-0 renal) greater than 100 µM, a TGI (A498 renal) greater than 100 µM and a TGI (A549 NSCLC) greater than 100 µM. It also gave a TGI (ACHN renal) greater than 100 µM, a TGI (CAKI-1 renal) greater than 100 µM and a TGI (CCRF-CEM leukemia) greater than 100 µM. The TGI (COLO 205 colon) was greater than 100 µM, the TGI (DLD-1 colon) was greater than 100 µM and the TGI (DMS 114 small cell lung) was greater than 100 µM. The TGI (EKVX NSCLC) was greater than 100 µM, the TGI (HCT-116 colon) was greater than 100 µM and the TGI (HL-60(TB) leukemia) was greater than 100 µM. The TGI (HOP-62 NSCLC) was greater than 100 µM, the TGI (HOP-92 NSCLC) was greater than 100 µM and the TGI (HT29 colon) was greater than 100 µM. For the same compound, the TGI (IGROV1 ovarian) was greater than 100 µM, the TGI (K-562 leukemia) was greater than 100 µM and the TGI (KM12 colon) was greater than 100 µM. For the same compound, the TGI (LXFL 529 NSCLC) was greater than 100 µM, the TGI (M14 melanoma) was greater than 100 µM and the TGI (M19-MEL melanoma) was greater than 100 µM. It also gave a TGI (MALME-3M melanoma) greater than 100 µM, a TGI (MOLT-4 leukemia) greater than 100 µM and a TGI (NCI-H226 lung) greater than 100 µM. The TGI (NCI-H23 lung) was greater than 100 µM, the TGI (NCI-H460 lung) was greater than 100 µM and the TGI (NCI-H522 lung) was greater than 100 µM. For the same compound, the TGI (OVCAR-3 ovarian) was greater than 100 µM, the TGI (OVCAR-4 ovarian) was greater than 100 µM and the TGI (OVCAR-5 ovarian) was greater than 100 µM. For the same compound, the TGI (OVCAR-8 ovarian) was greater than 100 µM, the TGI (RPMI-8226 leukemia) was greater than 100 µM and the TGI (SF-268 CNS) was greater than 100 µM. The TGI (SF-295 CNS) was greater than 100 µM, the TGI (SK-MEL-2 melanoma) was greater than 100 µM and the TGI (SK-MEL-28 melanoma) was greater than 100 µM. The TGI (SK-OV-3 ovarian) was greater than 100 µM, the TGI (SN12C renal) was greater than 100 µM and the TGI (SNB-19 CNS) was greater than 100 µM. For the same compound, the TGI (SNB-75 CNS) was 48.9 µM, the TGI (SR leukemia) was greater than 100 µM and the TGI (SW-620 colon) was greater than 100 µM. The TGI (TK-10 renal) was greater than 100 µM, the TGI (U251 CNS) was greater than 100 µM and the TGI (UACC-257 melanoma) was greater than 100 µM. For the same compound, the TGI (UACC-62 melanoma) was greater than 100 µM, the TGI (UO-31 renal) was greater than 100 µM and the TGI (XF 498 CNS) was 26.1 µM.

Reference: PubChem BioAssay (NCI)
